Results reported in patent US7732200B2, “Materials and methods for nerve grafting, selection of nerve grafts, and in vitro nerve tissue culture” (University of Florida Research Foundation, Inc., priority 2001, dated 2010).

What was measured:
[1] = system: Schwann cell cultures; assay: Treatment of isolated Schwann cell cultures; format: cell-based
[2] = system: MMP gelatinolytic activity; assay: In situ zymography of cultured nerve explants; format: biochemical, rat; details: nerves cultured 2 days, 2% serum, in the presence of GM6001
Experimental: In situ zymography for nerve predegeneration experiments. Cryosections (10 μm) of unfixed normal and cultured nerves were mounted on slides and overlaid with reaction buffer (50 mM Tris-HCl, 150 mM NaCl, 5 mM CaCl2, 0.2 mM sodium azide, pH 7.6) containing 20 μg/ml of intramolecularly quenched, fluorescein-labeled gelatin substrate (MOLECULAR PROBES INC., Eugene, Oreg.) (Oh et al., 1999). In the control condition, the MMP inhibitor EDTA (30 mM) was included in the reaction buffer. After incubation for 24 h at 37° C., the sections were rinsed with PBS and fixed with 4% paraformaldehyde in phosphate buffer. The sections were rinsed with water and mounted using Citifluor. Fluorescein-gelatin peptides generated by gelatinolytic activity in the tissue sections were observed and photographed by epifluorescence microscopy.
The activity of MMPs is regulated by gene transcription, proenzyme activation and by the action of tissue inhibitors of metalloproteinases. The net gelatinolytic activity in nerve segments by in situ zymography was examined. Tissue sections were overlaid with quenched, fluorescein-gelatin, which is converted to fluorescent peptides by gelatinolytic activity within tissues. Constitutive gelatinolytic activity was detected in normal nerve mostly associated with Schwann cells aligned along the endoneurial basal lamina (as shown in FIGS. 17A and 17B). […]

[3] = system: nerve segments; assay: Dissociation culture (squash preparations) of cultured nerve segments; format: cell-based, rat; details: nerves cultured 2 days, 2% serum, with GM6001

CNC(=O)[C@H](Cc1c[nH]c2ccccc12)NC(=O)[C@@H](CC(=O)NO)CC(C)C [GM6001]
toxicity to isolated Schwann cell cultures [1]: very low toxicity
gelatinolytic activity in nerve explants [2]: nearly undetectable
cell viability of nerve segments (cell outgrowth) [3]: no loss of cell viability
